Data published in PubChem BioAssay AID743370.
The source made the active and inactive calls. No rule for the calls is given here.

Target: Acetylcholine receptor subunit alpha (Tetronarce californica) + Acetylcholine receptor subunit beta (Tetronarce californica) + Acetylcholine receptor subunit gamma (Tetronarce californica) + Acetylcholine receptor subunit delta (Tetronarce californica) (UniProt P02710+P02712+P02714+P02718)
Test: Torpedo nAChR binders, biochemical, Torpedo californica electric organ membranes, [125I]alpha-bungarotoxin (AID 743370)
Conditions: [125I]alpha-bungarotoxin displacement

Sequence of Acetylcholine receptor subunit alpha (Tetronarce californica) + Acetylcholine receptor subunit beta (Tetronarce californica) + Acetylcholine receptor subunit gamma (Tetronarce californica) + Acetylcholine receptor subunit delta (Tetronarce californica) (P02710 whole entry, looked up): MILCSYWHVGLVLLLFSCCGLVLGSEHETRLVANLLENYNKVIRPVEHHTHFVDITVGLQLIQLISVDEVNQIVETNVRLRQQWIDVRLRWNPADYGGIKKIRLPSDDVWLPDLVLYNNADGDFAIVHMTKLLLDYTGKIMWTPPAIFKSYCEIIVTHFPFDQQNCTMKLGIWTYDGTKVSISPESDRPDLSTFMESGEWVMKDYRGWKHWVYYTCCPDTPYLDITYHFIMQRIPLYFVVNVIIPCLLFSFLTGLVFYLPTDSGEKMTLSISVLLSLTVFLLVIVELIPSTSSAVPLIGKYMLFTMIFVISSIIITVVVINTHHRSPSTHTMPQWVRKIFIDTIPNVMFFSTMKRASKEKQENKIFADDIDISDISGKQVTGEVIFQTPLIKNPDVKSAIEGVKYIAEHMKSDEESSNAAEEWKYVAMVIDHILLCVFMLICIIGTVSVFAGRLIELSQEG
Sequence of Acetylcholine receptor subunit alpha (Tetronarce californica) + Acetylcholine receptor subunit beta (Tetronarce californica) + Acetylcholine receptor subunit gamma (Tetronarce californica) + Acetylcholine receptor subunit delta (Tetronarce californica) (P02712 whole entry, looked up): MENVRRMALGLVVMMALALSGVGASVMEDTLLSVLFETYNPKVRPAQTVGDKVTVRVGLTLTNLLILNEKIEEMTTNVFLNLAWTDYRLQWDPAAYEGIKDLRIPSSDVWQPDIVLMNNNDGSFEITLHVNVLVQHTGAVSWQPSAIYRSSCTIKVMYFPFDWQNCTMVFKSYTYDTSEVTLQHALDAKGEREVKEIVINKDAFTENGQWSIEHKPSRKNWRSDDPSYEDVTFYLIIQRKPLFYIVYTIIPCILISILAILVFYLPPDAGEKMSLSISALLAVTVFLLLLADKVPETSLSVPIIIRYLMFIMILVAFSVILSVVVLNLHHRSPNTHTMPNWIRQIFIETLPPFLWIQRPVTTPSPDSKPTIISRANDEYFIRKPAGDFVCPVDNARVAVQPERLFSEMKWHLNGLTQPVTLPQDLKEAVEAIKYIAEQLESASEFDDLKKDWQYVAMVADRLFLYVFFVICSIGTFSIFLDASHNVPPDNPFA
Sequence of Acetylcholine receptor subunit alpha (Tetronarce californica) + Acetylcholine receptor subunit beta (Tetronarce californica) + Acetylcholine receptor subunit gamma (Tetronarce californica) + Acetylcholine receptor subunit delta (Tetronarce californica) (P02714 whole entry, looked up): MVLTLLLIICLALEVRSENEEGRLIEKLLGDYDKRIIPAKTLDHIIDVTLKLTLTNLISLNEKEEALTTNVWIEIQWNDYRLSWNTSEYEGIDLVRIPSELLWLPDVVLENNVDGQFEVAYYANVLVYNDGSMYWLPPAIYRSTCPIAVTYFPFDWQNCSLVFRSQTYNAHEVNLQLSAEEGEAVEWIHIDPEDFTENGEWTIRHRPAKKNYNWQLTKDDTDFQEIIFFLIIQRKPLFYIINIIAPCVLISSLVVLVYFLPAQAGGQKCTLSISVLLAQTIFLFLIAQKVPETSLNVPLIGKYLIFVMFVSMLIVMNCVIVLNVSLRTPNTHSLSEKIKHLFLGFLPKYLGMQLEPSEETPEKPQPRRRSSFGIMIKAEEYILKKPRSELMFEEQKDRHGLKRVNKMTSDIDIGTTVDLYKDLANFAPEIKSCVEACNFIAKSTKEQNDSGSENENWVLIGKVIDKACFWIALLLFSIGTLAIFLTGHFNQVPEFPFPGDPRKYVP
Sequence of Acetylcholine receptor subunit alpha (Tetronarce californica) + Acetylcholine receptor subunit beta (Tetronarce californica) + Acetylcholine receptor subunit gamma (Tetronarce californica) + Acetylcholine receptor subunit delta (Tetronarce californica) (P02718 whole entry, looked up): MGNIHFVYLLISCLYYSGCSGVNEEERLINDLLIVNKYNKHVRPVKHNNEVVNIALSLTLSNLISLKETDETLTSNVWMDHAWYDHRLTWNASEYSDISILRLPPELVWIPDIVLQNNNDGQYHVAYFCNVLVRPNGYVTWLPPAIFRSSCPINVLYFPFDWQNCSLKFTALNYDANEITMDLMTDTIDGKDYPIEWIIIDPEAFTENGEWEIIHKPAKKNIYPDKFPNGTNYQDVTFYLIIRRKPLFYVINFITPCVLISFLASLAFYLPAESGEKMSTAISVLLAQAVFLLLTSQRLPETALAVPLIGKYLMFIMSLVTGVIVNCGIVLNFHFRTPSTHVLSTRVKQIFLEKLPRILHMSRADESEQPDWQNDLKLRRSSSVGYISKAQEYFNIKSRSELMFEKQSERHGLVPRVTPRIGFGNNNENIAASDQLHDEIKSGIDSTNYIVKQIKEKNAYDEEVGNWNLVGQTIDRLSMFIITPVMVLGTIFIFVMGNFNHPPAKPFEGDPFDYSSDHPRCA

| Compound | Ki |
| --- | --- |
| CC/C=C/[C@@H]1CC[C@]2(C[C@H]3CC[C@H]4[C@@H](C(=O)OC(CC)CCCCCCCCCCCCC[C@@H]5O[C@](O)(CCN)[C@H](O)N(CCCN)C5=O)[C@@]5(CCC[C@H](C)O5)NC(=[N+]34)N2)O1 (stereo partly specified) | 8 µM |
| COn1c(Br)c2c3c(cccc31)[C@H]1C[C@@H](C)CN(C)[C@@H]1C2 | 44 µM |
| NC1=N/C(=C2/CCNC(=O)c3[nH]ccc32)C(=O)N1 | inactive |
| COc1cc(CCN)c2c(c1OC)SSSSS2 | 10 µM |
| C[C@@H](N)[C@H](O)CCCCCCCC(=O)CCCCCCCCCCCCCC[C@@H](O[C@@H]1O[C@H](CO)[C@H](O)[C@H](O)[C@H]1O)[C@@H](C)N | 22 µM |
| COc1cc2c3c(ccnc3c1OC)NC=C2 | 34 µM |
